Like-named read-outs stand apart in the source and are kept apart here.

The target of this assay is T1, triosephosphate isomerase (rabbit muscle TIM) (Oryctolagus cuniculus, UniProt P00939).
T1 construct: gene TPI1; native enzyme from rabbit muscle, commercial reagent (Sigma-Aldrich); homodimer; 1R2R is the rabbit TIM structure used for docking
The assay can be described thus: coupled assay with alpha-glycerophosphate dehydrogenase, NADH at […] nm. It counts as biochemical.

T1 sequence (P00939 2-249): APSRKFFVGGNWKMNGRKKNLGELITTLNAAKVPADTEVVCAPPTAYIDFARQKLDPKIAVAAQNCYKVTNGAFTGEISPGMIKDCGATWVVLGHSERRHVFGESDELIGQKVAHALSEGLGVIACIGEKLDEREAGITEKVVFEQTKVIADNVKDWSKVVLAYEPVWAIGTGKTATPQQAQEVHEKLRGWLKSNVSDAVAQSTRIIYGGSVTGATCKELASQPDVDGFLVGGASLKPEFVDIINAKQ

Turning to `Nc1nc2c(c(=O)[nH]1)C(c1ccccc1)C1=C(N2)c2ccccc2C1=O` (racemic) [compound 1, 2-amino-5-phenyl-3H-indeno[2′,1′:5,6]pyrido[2,3-d]pyrimidine-4,6(5H,11H)-dione], the Ki (read-out: K i) came to 44 µM. Take `O=C1C2=C(Nc3[nH]c(=O)[nH]c(=O)c3[C@H]2c2ccccc2)c2ccccc21` [compound 2, Compound 2]: the Ki (glyceraldehyde-3-phosphate 0.4 mM (= Km), NADH 0.1 mM, pH 8.0, Ki calculated from IC50 by Ki = Kapp/(1 + [S]/Km), read-out: 2) is more than 440 µM.

The values above are taken from publication PMC4207401, “A Novel Inhibitor of Mammalian Triosephosphate Isomerase Found by an In Silico Approach” (International Journal of Medicinal Chemistry, 2014).
